# Laboratory results as given in patent publication US20090197967A1, “COMPOSITIONS AND METHODS FOR TREATMENT OF OPHTHALMIC DISEASES AND DISORDERS” (priority 2006, published 2009).
# Test system: RXR
# Assay: not given
# Conditions: at micromolar concentrations; cited from earlier work
row,Structure (SMILES),interaction with RXR
1,"CC1=C(/C=C/C(C)=C/C=C/C(C)=C/CN)C(C)(C)CCC1 [Ret-NH2, retinylamine]",does not interact

# Target: T1, visual cycle trans-cis isomerohydrolase (isomerase) (Bos taurus, UniProt Q28175)
# T1 construct: Bovine Retinal Pigment Epithelium (RPE) microsome membranes were the source of visual cycle trans-cis isomerohydrolase (isomerase); from tissue; host or cells: bovine retinal pigment epithelium (RPE) microsome membranes; CRALBP made in E. coli
# T1 sequence (Q28175 2-533 limits assumed): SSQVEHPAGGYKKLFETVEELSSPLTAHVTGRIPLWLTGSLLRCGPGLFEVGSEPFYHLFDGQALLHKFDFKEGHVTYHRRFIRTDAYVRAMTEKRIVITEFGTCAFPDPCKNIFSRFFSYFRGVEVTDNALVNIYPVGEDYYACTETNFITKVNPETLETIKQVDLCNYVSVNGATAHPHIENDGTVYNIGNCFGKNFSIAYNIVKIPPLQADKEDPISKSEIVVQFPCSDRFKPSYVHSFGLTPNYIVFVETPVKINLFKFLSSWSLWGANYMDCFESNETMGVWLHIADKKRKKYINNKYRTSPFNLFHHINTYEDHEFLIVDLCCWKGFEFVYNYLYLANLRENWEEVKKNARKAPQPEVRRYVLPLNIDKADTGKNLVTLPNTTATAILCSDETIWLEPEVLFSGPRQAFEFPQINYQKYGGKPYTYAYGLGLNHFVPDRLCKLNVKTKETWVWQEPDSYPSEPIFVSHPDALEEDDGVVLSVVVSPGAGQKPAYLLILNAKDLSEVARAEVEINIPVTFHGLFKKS
# Assay: Isomerase reaction: inhibition of isomerase by retinylamine derivative compounds (bovine RPE microsomes, HPLC read-out)
# Format: biochemical
# Conditions: 5 min preincubation at 37° C., 10 μM all-trans-retinol, 6 μM apo-CRALBP, 30 minutes
# Procedure: The capability of several retinylamine compounds to inhibit the activity of visual cycle trans-cis isomerohydrolase (isomerase) was determined.
# Isomerase and LRAT reaction—The isomerase reaction was performed essentially as described previously (Stecher et al., J Biol Chem 274:8577-85 (1999); see also Golczak et al., supra). Bovine Retinal Pigment Epithelium (RPE) microsome membranes were the source of visual cycle trans-cis isomerohydrolase (isomerase).
# RPE microsome membrane extracts may be purchased or prepared according to methods practiced in the art and stored at −80° C. Crude RPE microsome extracts were thawed in a 37° C. water bath, and then immediately placed on ice. 50 ml crude RPE microsomes were placed into a 50 ml Teflon-glass homogenizer (Fisher Scientific, catalog no. 0841416M) on ice, powered by a hand-held DeWalt drill, and homogenized ten times up and down on ice under maximum speed. This process was repeated until the crude RPE microsome solution was homogenized. The homogenate was then subjected to centrifugation (50.2 Ti rotor (Beckman, Fullerton, Calif.), 13,000 RPM; 15360 Rcf) for 15 minutes at 4° C. The supernatant was collected and subjected to centrifugation a5 42,000 RPM (160,000 Rcf, 50.2 Ti rotor) for 1 hour at 4° C. The supernatant was removed, and the pellets were suspended in 12 ml (final volume) cold 10 mM MOPS buffer, pH 7.0. The resuspended RPE membranes in 5 ml aliquots were homogenized in a glass-to-glass homogenizer (Fisher Scientific, catalog no. K885500-0021) to high homogeneity. Protein concentration was quantified using the BCA protein assay according to the manufacturer's protocol (Pierce, Rockford, Ill.; catalog no. 23227). The homogenized RPE preparations were stored at −80° C.
# Recombinant human apo cellular retinaldehyde-binding protein (CRALBP) was cloned and expressed according to standard methods in the molecular biology art (see Crabb et al., Protein Science 7:746-57 (1998); Crabb et al., J. Biol. Chem. 263:18688-92 (1988)). Briefly, total RNA was prepared from confluent ARPE19 cells (American Type Culture Collection, Manassas, Va.), cDNA was synthesized using an oligo(dT)12-18 primer, and then DNA encoding CRALBP was amplified by two sequential polymerase chain reactions (see Crabb et al., J. Biol. Chem. 263:18688-92 (1988); Intres, et al., J. Biol. Chem. 269:25411-18 (1994); GenBank Accession No. L34219.1). The PCR product was sub-cloned into pTrcHis2-TOPO TA vector according to the manufacturer's protocol (Invitrogen Inc., Carlsbad, Calif.; catalog no. K4400-01), and then the sequence was confirmed according to standard nucleotide sequencing techniques. Recombinant 6×His-tagged human CRALBP was expressed in One Shot TOP 10 chemically competent E. coli cells (Invitrogen), and the recombinant polypeptide was isolated from E. coli cell lysates by nickel affinity chromatography using Ni Sepharose XKI 6-20 columns for HPLC (Amersham Bioscience, Pittsburgh, Pa.; catalog no. 17-5268-02). The purified 6×His-tagged human CRALBP was dialyzed against 10 mM bis-tris-Propane (BTP) and analyzed by SDS-PAGE. The molecular weight of the recombinant human CRALBP was approximately 39 kDal.
# The isomerase assay was performed in 10 mM BTP buffer, pH 7.5, 1% BSA, containing 1 mM ATP and 6 μM apo-CRALBP (cellular retinaldehyde-binding protein). To investigate inhibition properties of retinylamine derivative compounds, RPE microsomes were preincubated for 5 min in 37° C. with a compound in 10 mM BTP buffer, pH 7.5, 1% BSA, and 1 mM ATP prior to addition of apo-CRALBP and 10 μM all-trans-retinol. Retinylamine derivative compounds were delivered to the reaction mixture in 2 μl ethanol. If the compounds were not soluble in ethanol, DMF was added until the compound was in solution. The same volume of ethanol and/or DMF was added to the control reaction (absence of test compound). […]
row,IC50,Structure (SMILES)
1,3.1 µM,CC1=C(/C=C/C(C)=C2C=C/C(=C/CN)CCC/2)C(C)(C)CCC1 [Cmpd 1]
2,0.55 µM,CC1=C(/C=C/C(C)=C2C=C/C(=C/CN)CC/2)C(C)(C)CCC1 [Cmpd 2]
3,0.7 µM,CC1=C(/C=C/C(C)=C/C=C/C(C)=C/CN)C(C)(C)CCC1 [Cmpd 3]
4,5.8 µM,CC1=C(/C=C/C(C)=C/C=C/CN)C(C)(C)CCC1 [Cmpd 4]
5,1.7 µM,CC(=CCCCCN)/C=C/C1=C(C)CCCC1(C)C [Cmpd 5]
6,8.4 µM,CC1=C(/C=C/C(C)=C/CN)C(C)(C)CCC1 [Cmpd 7]
7,0.6 µM,CC1=C(/C=C/C(C)=C/C=C\CCCN)C(C)(C)CCC1 [Cmpd 8]
8,6 µM,CC1=C(/C=C/C(C)=C/C=C/CCCN)C(C)(C)CCC1 [Cmpd 9]
9,14 µM,CC1=C(/C=C/C(C)=C/C=C/CCCCN)C(C)(C)CCC1 [Cmpd 10]
10,17 µM,CC1=C(/C=C/C(C)=C/C=C/C(C)=C/CN)C(C)(C)CCC1OCc1ccccc1 (stereo not drawn) [Cmpd 11]
11,25 µM,CC1=C(/C=C/C(C)=C/C=CCCCCCCN)C(C)(C)CCC1 [Cmpd 12]
12,200 µM,CC1=C(/C=C/C(C)=C/C=C/CCCCCCN)C(C)(C)CCC1 [Cmpd 13]
13,80 µM,CC1=C(/C=C/C(C)N)C(C)(C)CCC1 (stereo not drawn) [Cmpd 14]

# Test system: RAR
# Assay: not given
# Conditions: at micromolar concentrations; cited from earlier work
row,Structure (SMILES),interaction with RAR
1,"CC1=C(/C=C/C(C)=C/C=C/C(C)=C/CN)C(C)(C)CCC1 [Ret-NH2, retinylamine]",does not interact
